# Data from patent publication US12252484B2, “Pyrazolopyridine compounds for the treatment of autoimmune disease” (Hoffmann-La Roche Inc., priority 2018, dated 2025).
# Target: T1, human TLR7 (Homo sapiens, UniProt Q9NYK1)
# T1 sequence (Q9NYK1 27-1049): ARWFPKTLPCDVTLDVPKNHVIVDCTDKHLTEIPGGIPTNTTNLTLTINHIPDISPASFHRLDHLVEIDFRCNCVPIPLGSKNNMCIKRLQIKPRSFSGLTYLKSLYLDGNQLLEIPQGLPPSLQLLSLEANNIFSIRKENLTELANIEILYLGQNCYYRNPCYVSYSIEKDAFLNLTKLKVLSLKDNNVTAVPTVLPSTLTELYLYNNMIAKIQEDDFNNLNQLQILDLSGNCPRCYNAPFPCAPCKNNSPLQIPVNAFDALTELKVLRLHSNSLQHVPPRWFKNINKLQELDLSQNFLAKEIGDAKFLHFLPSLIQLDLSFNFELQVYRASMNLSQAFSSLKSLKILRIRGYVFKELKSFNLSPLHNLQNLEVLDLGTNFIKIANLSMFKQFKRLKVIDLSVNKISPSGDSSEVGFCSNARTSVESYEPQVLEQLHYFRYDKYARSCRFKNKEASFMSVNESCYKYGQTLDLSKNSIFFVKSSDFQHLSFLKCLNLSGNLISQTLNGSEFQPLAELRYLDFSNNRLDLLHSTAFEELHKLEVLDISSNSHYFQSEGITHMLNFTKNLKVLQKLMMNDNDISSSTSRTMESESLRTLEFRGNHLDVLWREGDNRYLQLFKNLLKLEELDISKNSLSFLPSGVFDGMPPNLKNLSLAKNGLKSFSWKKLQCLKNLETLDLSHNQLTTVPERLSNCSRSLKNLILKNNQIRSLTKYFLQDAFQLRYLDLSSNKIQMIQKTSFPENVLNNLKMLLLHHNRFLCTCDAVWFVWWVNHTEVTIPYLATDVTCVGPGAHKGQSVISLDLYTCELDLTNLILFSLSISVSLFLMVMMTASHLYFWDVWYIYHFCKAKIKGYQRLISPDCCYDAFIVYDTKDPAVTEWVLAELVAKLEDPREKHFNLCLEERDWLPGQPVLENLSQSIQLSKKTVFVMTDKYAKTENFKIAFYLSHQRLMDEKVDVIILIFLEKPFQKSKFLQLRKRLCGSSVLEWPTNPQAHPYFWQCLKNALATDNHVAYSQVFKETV
# Test: HEK293-Blue-hTLR-7 cells assay (SEAP reporter, R848 stimulation)
# Format: cell-based
# Conditions: not given
# Description: The following tests were carried out in order to determine the activity of the compounds of formula (I) in HEK293-Blue-hTLR-7/8/9 cells assay.
# HEK293-Blue-hTLR-7 Cells Assay:
# A stable HEK293-Blue-hTLR-7 cell line was purchased from InvivoGen (Cat. #: hkb-htlr7, San Diego, California, USA). These cells were originally designed for studying the stimulation of human TLR7 by monitoring the activation of NF-κB. A SEAP (secreted embryonic alkaline phosphatase) reporter gene was placed under the control of the IFN-β minimal promoter fused to five NF-κB and AP-1-binding sites. The SEAP was induced by activating NF-κB and AP-1 via stimulating HEK-Blue hTLR7 cells with TLR7 ligands. Therefore the reporter expression was declined by TLR7 antagonist under the stimulation of a ligand, such as R848 (Resiquimod), for incubation of 20 hrs. The cell culture supernatant SEAP reporter activity was determined using QUANTI-Blue™ kit (Cat. #: rep-qb1, Invivogen, San Diego, Ca, USA) at a wavelength of 640 nm, a detection medium that turns purple or blue in the presence of alkaline phosphatase.
# HEK293-Blue-hTLR7 cells were incubated at a density of 250,000˜450,000 cells/mL in a volume of 170 μL in a 96-well plate in Dulbecco's Modified Eagle's medium (DMEM) containing 4.5 g/L glucose, 50 U/mL penicillin, […], […], 2 mM L-glutamine, 10% (v/v) heat-inactivated fetal bovine serum with addition of 20 μL test compound in a serial dilution in the presence of final DMSO at 1% and 10 μL of 20 uM R848 in above DMEM, perform incubation under 37° C. in a CO2 incubator for 20 hrs. Then 20 μL of the supernatant from each well was incubated with 180 μL Quanti-blue substrate solution at 37° C. for 2 hrs and the absorbance was read at 620˜655 nm using a spectrophotometer. The signalling pathway that TLR7 activation leads to downstream NF-κB activation has been widely accepted, and therefore similar reporter assay was modified for evaluating TLR7 antagonist.
row,SMILES,IC50
1,"C[C@@H]1CN(c2ccc(C#N)n3nccc23)C[C@H](C(=O)NC2CC3CCCC(C2)N3C)O1 (stereo partly drawn) [Example 35, (2R,6R)-4-(7-cyanopyrazolo[1,5-a]pyridin-4-yl)-6-methyl-N-(9-methyl-9-azabicyclo[3.3.1]nonan-3-yl)morpholine-2-carboxamide]",4 nM

# Same assay, conditions: HEK293-Blue-hTLR-7 cells, R848 ligand, 20 hrs incubation; read-out: TLR7 IC50
row,IC50,SMILES
1,150 nM,"C[C@@H]1CN(c2ccc(C#N)n3nccc23)C[C@H](C(=O)NC2CCNC2)O1 (stereo partly drawn) [Example 25, (2R,6R)-4-(7-cyanopyrazolo[1,5-a]pyridin-4-yl)-6-methyl-N-pyrrolidin-3-yl-morpholine-2-carboxamide]"
2,650 nM,"COCCNC(=O)[C@H]1CN(c2ccc(C#N)n3nccc23)C[C@@H](C)O1 [Example 9, (2R,6R)-4-(7-cyanopyrazolo[1,5-a]pyridin-4-yl)-N-(2-methoxyethyl)-6-methyl-morpholine-2-carboxamide]"
3,28 nM,"C[C@@H]1CN(c2ccc(Cl)n3nccc23)C[C@H](C(=O)NC2CCN(C)CC2)O1 [Example 38, (2R,6R)-4-(7-chloropyrazolo[1,5-a]pyridin-4-yl)-6-methyl-N-(1-methyl-4-piperidyl)morpholine-2-carboxamide]"
4,160 nM,"C[C@@H]1CN(c2ccc(C#N)n3nccc23)C[C@H](C(=O)NC2CC3(CNC3)C2)O1 [Example 3, (2R,6R)-N-(2-azaspiro[3.3]heptan-6-yl)-4-(7-cyanopyrazolo[1,5-a]pyridin-4-yl)-6-methyl-morpholine-2-carboxamide]"
5,27 nM,"C[C@@H]1CN(c2ccc(C#N)n3nccc23)C[C@H](C(=O)NC2CC3CCC(C2)N3)O1 (stereo partly drawn) [Example 23, Exo-(2R,6R)-N-[8-azabicyclo[3.2.1]octan-3-yl]-4-(7-cyanopyrazolo[1,5-a]pyridin-4-yl)-6-methyl-morpholine-2-carboxamide]"
6,350 nM,"C[C@@H]1CN(c2ccc(C#N)n3nccc23)C[C@H](C(=O)N[C@H]2CC[C@@H](O)CC2)O1 [Example 20, Cis-(2R,6R)-4-(7-cyanopyrazolo[1,5-a]pyridin-4-yl)-N-(4-hydroxycyclohexyl)-6-methyl-morpholine-2-carboxamide]"
7,210 nM,"C[C@@H]1CN(c2ccc(C#N)n3nccc23)C[C@H](C(=O)NCC2CCNC2)O1 (stereo partly drawn) [Example 40, (2R,6R)-4-(7-cyanopyrazolo[1,5-a]pyridin-4-yl)-6-methyl-N-(pyrrolidin-3-ylmethyl)morpholine-2-carboxamide]"
8,130 nM,"C[C@@H]1CN(c2ccc(C#N)n3nccc23)C[C@H](C(=O)NC2CC3CC2CN3)O1 (stereo partly drawn) [Example 36, (2R,6R)-N-(2-azabicyclo[2.2.1]heptan-5-yl)-4-(7-cyanopyrazolo[1,5-a]pyridin-4-yl)-6-methyl-morpholine-2-carboxamide]"
9,420 nM,"C[C@@H]1CN(c2ccc(C#N)n3nccc23)C[C@H](C(=O)N[C@H]2CC[C@H](O)CC2)O1 [Example 21, Trans-(2R,6R)-4-(7-cyanopyrazolo[1,5-a]pyridin-4-yl)-N-(4-hydroxycyclohexyl)-6-methyl-morpholine-2-carboxamide]"

# The remaining lines, values behind:
row,SMILES,IC50
1,"C[C@@H]1CN(c2ccc(C#N)n3nccc23)C[C@H](C(=O)N2CCC3(CCNCC3)CC2)O1 [Example 28, 4-[(2R,6R)-2-(3,9-diazaspiro[5.5]undecane-3-carbonyl)-6-methyl-morpholin-4-yl]pyrazolo[1,5a]pyridine-7-carbonitrile]",320 nM
2,"C[C@@H]1CN(c2ccc(C#N)n3nccc23)C[C@H](C(=O)NC23CC(CO)(C2)C3)O1 [Example 15, (2R,6R)-4-(7-cyanopyrazolo[1,5-a]pyridin-4-yl)-N-[3-(hydroxymethyl)-1-bicyclo[1.1.1]pentanyl]-6-methyl-morpholine-2-carboxamide]",220 nM
3,"C[C@@H]1CN(c2ccc(C#N)n3nccc23)C[C@H](C(=O)NC2CNC[C@H]2F)O1 (stereo partly drawn) [Example 5, Cis-(2R,6R)-4-(7-cyanopyrazolo[1,5-a]pyridin-4-yl)-6-methyl-N-(4-fluoropyrrolidin-3-yl) morpholine-2-carboxamide]",73 nM
4,"C[C@@H]1CN(c2ccc(C#N)n3nccc23)C[C@H](C(=O)N2CC(N)C2)O1 [Example 8, 4-[(2R,6R)-2-(3-aminoazetidine-1-carbonyl)-6-methyl-morpholin-4-yl]pyrazolo[1,5a]pyridine-7-carbonitrile]",190 nM
5,"C[C@@H]1CN(c2ccc(C#N)n3nccc23)C[C@H](C(=O)N[C@H]2CNC[C@H]2F)O1 [Example 2, (2R,6R)-4-(7-cyanopyrazolo[1,5-a]pyridin-4-yl)-N-[(3S,4R)-4-fluoropyrrolidin-3-yl]-6-methyl-morpholine-2-carboxamide]",91 nM
6,"C[C@H]1C[C@@H](N)CN(c2ccc(C#N)n3nccc23)C1 [Example 43, 4-[(3R,5S)-3-amino-5-methyl-1-piperidyl]pyrazolo[1,5-a]pyridine-7-carbonitrile]",34 nM
7,"C[C@@H]1CN(c2ccc(C#N)n3nccc23)C[C@H](C(=O)NC23CC4CC(CC(C4)C2)C3)O1 [Example 12, (2R,6R)-N-(1-adamantyl)-4-(7-cyanopyrazolo[1,5-a]pyridin-4-yl)-6-methyl-morpholine-2-carboxamide]",210 nM
8,"C[C@@H]1CN(c2ccc(C#N)n3nccc23)C[C@H](C(=O)NCC(C)(C)CN)O1 [Example 39, (2R,6R)-N-(3-amino-2,2-dimethyl-propyl)-4-(7-cyanopyrazolo[1,5-a]pyridin-4-yl)-6-methyl-morpholine-2-carboxamide]",30 nM
9,"C[C@@H]1CN(c2ccc(C#N)n3nccc23)C[C@H](C(=O)NC2C3CCC2CNC3)O1 (stereo partly drawn) [Example 26, (2R,6R)-N-(3-azabicyclo[3.2.1]octan-8-yl)-4-(7-cyanopyrazolo[1,5-a]pyridin-4-yl)-6-methyl-morpholine-2-carboxamide]",20 nM
10,"C[C@@H]1CN(c2ccc(C#N)n3nccc23)C[C@H](C(=O)NC2CCOCC2)O1 [Example 4, (2R,6R)-4-(7-cyanopyrazolo[1,5-a]pyridin-4-yl)-6-methyl-N-tetrahydropyran-4-yl-morpholine-2-carboxamide]",410 nM
11,"C[C@H]1C[C@@H](NC(=O)[C@H](C)N)CN(c2ccc(C#N)n3nccc23)C1 [Example 44, (2S)-2-amino-N-[(3R,5S)-1-(7-cyanopyrazolo[1,5-a]pyridin-4-yl)-5-methyl-3-piperidyl]propanamide]",64 nM
12,"C[C@@H]1CN(c2ccc(C#N)n3nccc23)C[C@H](C(=O)NC2CC3CCC(C2)N3C)O1 (stereo partly drawn) [Example 33, (2R,6R)-4-(7-cyanopyrazolo[1,5-a]pyridin-4-yl)-6-methyl-N-(8-methyl-8-azabicyclo[3.2.1]octan-3-yl)morpholine-2-carboxamide]",4 nM
13,"C[C@@H]1CN(c2ccc(C#N)n3nccc23)C[C@H](C(=O)NC2CC3CCCC(C2)N3)O1 (stereo partly drawn) [Example 14, (2R,6R)-N-(9-azabicyclo[3.3.1]nonan-3-yl)-4-(7-cyanopyrazolo[1,5-a]pyridin-4-yl)-6-methyl-morpholine-2-carboxamide]",7 nM
14,"C[C@@H]1CN(c2ccc(C#N)n3nccc23)C[C@H](C(=O)NC(C)(C)CN)O1 [Example 41, (2R,6R)-N-(2-amino-1,1-dimethyl-ethyl)-4-(7-cyanopyrazolo[1,5-a]pyridin-4-yl)-6-methyl-morpholine-2-carboxamide]",46 nM
